Tests used:
[1] = Pharmacokinetics and brain penetration in wild-type FVB mice; format: in vivo
Description: The pharmacokinetics of NTRC 0066-0 were analyzed in wild-type (WT), Abcb1a/b^−/−, Abcg2^−/−, Abcb1a/b^−/−;Abcg2^−/− and Abcb1a/b^−/−;Abcg2^−/−;Abcc4^−/− FVB mice. All knockout mice strains have been developed at the Netherlands Cancer Institute. For i.v. administration, NTRC0066-0 was formulated in DMSO: Cremophor EL: saline (1:1:8 v/v) and injected at a dose of 5 mg/kg. For i.p and oral administration, NTRC0066-0 was administered at 5, 10 or 20 mg/kg as indicated. Serial blood sampling was done by tail vein bleeding at specific time points. At terminal time points, blood was drawn by cardiac puncture followed by tissue collection. Plasma was obtained from whole blood by centrifugation (5 min, 5,000 rpm, 4 °C) and tissues were weighed and homogenized using a FastPrep®-24 (MP-Biomedicals, NY) in 1% (w/v) bovine serum albumin (Sigma-Aldrich) in water.
NTRC 0066-0 was extracted from in vitro and in vivo samples using liquid–liquid extraction with diethyl ether. Another MPS-1 inhibitor, Compound 5 (Cpd-5), was added to the samples as an internal standard. The dried organic phase was reconstituted in 30% methanol in water (v/v). Samples were measured using an LC-MS/MS system comprising an UltiMate 3000 LC Systems (Dionex, Sunnyvale, CA) and an API 4000 mass spectrometer (Sciex, Framingham, MA). Samples were injected on to a Securityguard C18 pre-column (Phenomenex, Utrecht, The Netherlands) connected to a ZORBAX Extend-C18 column (Agilent, Santa Clara, CA). Elution was done at a flow rate of 0.2 mL/min using a 5 min gradient from 20% to 95% B (mobile phase A was 0.1% HCOOH in water (v/v) and mobile phase B was methanol). 95% B was maintained for 3 min followed by re-equilibration at 20% B. Multiple reaction monitoring parameters were 566.2/391.4 (NTRC0066-0) and 581.6/397.0 (internal standard). Analyst® 1.6.2 software (Sciex) was used for system control and data analysis.
PK solver was used to determine pharmacokinetic parameters. The standard error of the oral bioavailability was calculated using the formula below: […]

LN-428 = experiment: Cell survival assay (crystal violet), continuous exposure; format: cell-based, human; details: LN-428, continuous exposure, Fig. 1A
Description: (§1) Wells were pre-coated with poly-ornithine (15 µg/ml for 3 h at room temperature) and subsequently with laminin (7.5 µg/ml for 1 h at 37 °C) prior to seeding GSCs to make them adherent without inducing differentiation. […] Cells were plated in 24-wells plates at low cell densities (2,000–10,000 cells/well) and exposed to different concentrations of NTRC0066-0 24 h later. NTRC0066-0 was dissolved in DMSO (Sigma-Aldrich) for in vitro experiments and final DMSO concentrations never exceeded 0.1%. When untreated wells were confluent (approximately 6–10 days after seeding, dependent on the cell line), cells were fixed and stained using a solution containing 0.5% crystal violet (w/v; Sigma-Aldrich) and 6% glutaraldehyde (v/v; Honeywell, Morris Plains, NJ). Plates were imaged using a Chemi-Doc XRS+ (Bio-rad, Hercules, CA) and analyzed using the Colony Area plugin of ImageJ [24]. IC50 curves were fitted and plotted using the ‘log(inhibitor) vs. normalized response – Variable slope’ fitting procedure of GraphPad Prism v10.3 (GraphPad Software, La Jolla, CA). Monotherapy curves were corrected for untreated controls.

T98G = experiment: as above; format: cell-based, human; details: Fig. 1A
Description: as §1

HS683 = experiment: as above; format: cell-based, human; details: Fig. 1A
Description: as §1

U87 = experiment: as above; format: cell-based, human; details: Fig. 1A
Description: as §1

E98 = experiment: as above; format: cell-based, human; details: Fig. 1A
Description: as §1

LN-751 = experiment: as above; format: cell-based, human; details: LN-751, continuous exposure, Fig. 1A
Description: as §1

GSC578 = experiment: Cell survival assay, glioma stem cell line; format: cell-based, murine; details: GSC578 (EgfrvIII;p15Ink4b/p16Ink4a-/-;Pten-/-), Fig. 1C
Excerpt: (§2) All cell lines were authenticated using STR profiling. The serum-cultured GBM cell lines U87 (RRID: CVCL_0022) and HS683 (RRID: CVCL_0844) were purchased from the ATCC (Manassas, VA), T98G (RRID: CVCL_0556) and LN-428 (RRID: CVCL_3959) cells were kindly provided by Dr. Conchita Vens (Netherlands Cancer Institute, Amsterdam, The Netherlands), E98 cells were obtained from Prof. Dr. William Leenders (Radboud University Medical Center, Nijmegen, The Netherlands), and LN-751 (RRID: CVCL_3964) were generously made available by Prof. Dr. Monika Hegi (Centre Hospitalier Universitaire Vaudois, Lausanne, Switzerland). GSC lines were isolated from murine tumors that were generated by stereotactic injection of Lenti–Cre vector in the striatum of Egfr^vIII;p15^Ink4b/p16^Ink4aF/F (GSC750), Egfr^vIII;p15^Ink4b/p16^Ink4aF/F;Pten^F/F (GSC578) or Egfr^vIII;p15^Ink4b/p16^Ink4aF/F;Pten^F/F;Tp53^F/F (GSC556) mice, as previously described.
as §1

GSC750 = experiment: Cell survival assay, glioma stem cell line; format: cell-based, murine; details: GSC750 (EgfrvIII;p15Ink4b/p16Ink4a-/-), Fig. 1C
Excerpt: as §2, §1

GSC556 = experiment: Cell survival assay, glioma stem cell line; format: cell-based, murine; details: GSC556 (EgfrvIII;p15Ink4b/p16Ink4a-/-;Pten-/-;Tp53-/-), Fig. 1C
Excerpt: as §2, §1

In the case of `CCc1cccc(CC)c1NC(=O)c1ccn2c1CCc1cnc(Nc3ccc(N4CCN(C)CC4)cc3OC)nc1-2` [NTRC 0066-0], the “Oral bioavailability (relative to i.p.)” value ([1]; WT mice) is reported as “about 50%”, the Brain-plasma ratio ([1]; WT mice, 1 h after 5 mg/kg i.v.) is reported as “approximately 4” and the Brain-to-plasma ratio ([1]; WT mice, 24 h after 10 mg/kg p.o. or i.p.) is reported as “approximately 20”. It also gave a Cmax ([1]; WT, i.p. 10 mg/kg) of 780 ± 130 nM, an MRT ([1]; WT, i.p. 10 mg/kg) of 3.2 ± 0.4 h and a t1/2 ([1]; WT, i.p. 10 mg/kg) of 2.5 ± 0.2 h. The tmax ([1]; WT, i.p. 10 mg/kg) was 0.5 ± 0.3 h, the “Plasma AUCi.p.” value ([1]; WT, i.p. 10 mg/kg, 0-∞) was 2.8 ± 0.45 µM·h and the Cmax ([1]; WT, p.o. 10 mg/kg) was 180 ± 6.7 nM. For the same compound, the MRT ([1]; WT, p.o. 10 mg/kg) was 4.7 ± 0.2 h, the t1/2 ([1]; WT, p.o. 10 mg/kg) was 2.8 ± 0.2 h and the tmax ([1]; WT, p.o. 10 mg/kg) was 1.8 ± 1.5 h. The “F (bioavailability)” value ([1]; WT, p.o. 10 mg/kg relative to i.p.) was 59 ± 11%, the “Plasma AUCp.o.” value ([1]; WT, p.o. 10 mg/kg, 0-∞) was 1.7 ± 0.15 µM·h and the IC50 (LN-428) was 39 nM. The IC50 (T98G) was 18 nM, the IC50 (HS683) was 42 nM and the IC50 (U87) was 31 nM. For the same compound, the IC50 (E98) was 23 nM, the IC50 (LN-751) was 37 nM and the IC50 (GSC578) was 46 nM. The IC50 (GSC750) was 25 nM and the IC50 (GSC556) was 20 nM.
